These results are taken from patent US10316000B2, “Coupled recognition/detection system for in vivo and in vitro use” (Cornell University, priority 2009, dated 2019).

“Also recorded” adds a separate entry of the source.

Data set [1] is described as follows: Dissociation constant of aptamer-DMHBI complexes by fluorescence titration. It is filed as binding. The source says:
The first step in characterizing the interaction between fluorescence-inducing aptamers of DMHBI was to determine their binding affinities. Because binding of the RNA to DMHBI results in fluorescence, the dissociation constant (Kd) was obtained by titrating increasing amounts of DMHBI to a solution of the aptamer. To correct for any increases in DMHBI background fluorescence, measurements of DMHBI alone at the same concentrations were taken and subtracted from the binding data. These measurements were then used to extrapolate RNA-fluorophore dissociation constants. DMHBI bound to both 3-6 and 13-2 with roughly equal dissociation constants of 500 nM (FIG. 5A).

The test system of the next data set is aptamer 13-2. Kind of data set: Quantum yield, extinction coefficient and brightness of DMHBI alone and with aptamer 13-2. Format: physicochemical. The protocol:
Lucifer Yellow and Cascade Yellow, two fluorophores with known quantum yields, were used as standards and the relative slope changes in the curve depicting absorbance vs. total fluorescence were compared. Values were calculated for DMHBI alone and DMHBI with aptamer 13-2 to identify the underlying reason for fluorescence increase. […] Quantum yield, however, increased enormously from 0.0006 for DMHBI alone to 0.08 for the aptamer-DMHBI complex—an over 100-fold increase. Total brightness, measured as the product of extinction coefficient and quantum yield, went from 0.008 to 1.23 (150-fold). […] More importantly, the fold-increases in both quantum yield and brightness are more than sufficient for detection of the aptamer-fluorophore complex.

A short description of data set [2]: Fluorescence of free fluorophore (ethanol glass, glycerol viscosity). Format: physicochemical. The source says: In GFP, the chromophore is held inside the protein β-barrel structure and rigidified by direct interactions with over a dozen amino acid residues (FIG. 1C). This inflexible positioning of the chromophore by the protein is the reason for its large fluorescent quantum yield. Similarly, the synthetic GFP chromophores 4-hydroxybenzilidene-1,2-dimethyl-imidazol-5-one (“HBDI”) is capable of bright fluorescence only when rigidified by solidified solvents (Niwa et al., “Chemical Nature of the Light Emitter of the Aequorea Green Fluorescent Protein,” Proc. Nat'l Acad. Sci. USA 93:13617-13622 (1996), which is hereby incorporated by reference in its entirety). […] As an initial experiment DMHBI was first dissolved in ethanol and frozen in liquid nitrogen to create an ethanol glass matrix.
To more precisely determine the effect of immobilization on DMHBI fluorescence, 10 μM DMHBI in aqueous buffer was prepared and its fluorescence spectrum was measured in increasing concentrations of glycerol. Because glycerol is known to affect the viscosity of aqueous solutions in a predictable manner, the effect of increasing viscosity on DMHBI fluorescence can be readily measured. An increase in fluorescence intensity with increasing concentrations of glycerol was observed (FIG. 2B).
This is in agreement with previously reported data of the fluorescence spectrum of synthetic GFP chromophore, which is incapable of the excited-state proton transfer reaction that is responsible for green emission spectra found in the GFP protein. […] The reason for this is that the phenolic moiety of the chromophore remains protonated at neutral pH and in the context of the original protein. Deprotonation to the phenolate results in an excitation maxima at ˜475 nm.
Additionally, DFHBI was nonfluorescent when administered to HEK 293 cells, proving its utility for methods involving live cells.

A further data set concerns HEK 293 cells. Kind of data set: Non-specific fluorescence of dyes in HEK 293 cells. Format: cell-based. As to conditions: for non-specific fluorescence in cells: 10 μM, epifluorescent microscope. On the procedure: Previous studies to utilize conditionally fluorescent RNA binding dyes had focused on triphenylmethane scaffold dyes such as malachite green. However, these studies were halted by the discovery that many of these conditionally fluorescent dyes could interact with cellular components causing the cells to nonspecifically fluoresce. To determine whether the fluorophores of the present invention would be nonspecifically fluorescent in cells, HEK 293 cells were incubated with 10 μM DMHBI and visualized using an epifluorescent microscope.

A short description of data set [3]: Phenolic pKa and phenol/phenolate absorbance of fluorophores. As to conditions: for pKa: phenolic proton of free fluorophore. Format: physicochemical. On the procedure:
The pKa of DFHBI was calculated using the presence of the distinct phenol and phenolate absorbance peaks. […] This dramatic reduction in […] would ensure that a majority of fluorophore molecules would now be in the phenolate form at physiological pH.

For data set [4] the following is noted: cited from earlier work; for emission maxima: literature values.
A short description of data set [5]: Fluorescence of aptamer-DFHBI complexes. Format: biochemical. As to conditions: unchanged between unbound and bound fluorophore. The source says:
The addition of the fluoro groups appeared to cause a slight blue shift in the fluorescence with excitation and emission maxima at 460 nm and 500 nm, respectively (FIG. 12A). […] Thus, further characterization was only carried out on these two brightest clones. […] This increased brightness derived mainly from an increase in the quantum yield from 0.08 for DMHBI-RNA complexes to over 0.6 for DFHBI-RNA complexes. The extinction coefficient for DFHBI remained unchanged between unbound and bound fluorophore: 26,000 M^−1cm^−1.
Equimolar solutions of 24-1-DFHBI complex and eGFP were prepared to measure their relative fluorescence intensity. […] Mg^2+ ion requirement, on the other hand, is much greater for 24-1 and 24-2 than for 13-2 (FIG. 12D). Both 24-1 and 24-2 are optimally fluorescent at 25 mM MgCl2 with only a subtle decrease when the concentration is dropped to 5 mM (the concentration used for SELEX). However, dropping MgCl2 concentration from 5 mM to a more physiological concentration of 0.5 mM results in a 50% drop in fluorescence for both aptamers. Further decreasing the MgCl2 concentration completely abolishes 24-1 fluorescence at ˜0.01 mM, while 24-2 levels out at ˜45% intensity at 0.01 mM MgCl2.

Data set [6] in a line: ATP-dependent fluorescent sensor from aptamer 13-2 with DMHBI. Format: biochemical. The source says:
FIGS. 22A-B illustrate the design of a fluorescent ATP sensor using aptamer 13-2. FIG. 22A illustrates how aptamer 13-2 (nt 4-60 of SEQ ID NO: 3, structure from mFOLD, left) was modified by fusing it to a previously-described ATP-aptamer (see structure on right). An unstable stem was fused from the ATP aptamer to 13-2 at the stem A entry point, generating the sensor of SEQ ID NO: 62. FIG. 22B confirms that the fused aptamer construct can be used as an ATP-dependent fluorescent sensor. In the absence of ATP, there is minimal fluorescence, even in the presence of DMHBI (lower curve). However, after addition of 1 mM ATP, the fluorescence increases nearly 30-fold (upper curve).
The mutagenesis studies described in Example 8 confirmed that stem loop A of aptamer 13-2 (see FIG. 22A) could be mutated as long as a stem-forming sequence was retained. Using the same approach identified in Example 17 (for aptamer 24-1), stem-loop A was used as an entry point for introducing an ATP aptamer along with stem destabilization.

[7] abbreviates: highly viscous solutions, pH 7.4.

As to `COc1cc(/C=C2\N=C(C)N(C)C2=O)cc(OC)c1O` [DMHBI, 4-(4-hydroxy-3,5-dimethoxybenzylidene)-1,2-dimethyl-imidazol-5-one], the Kd – broadly, the concentration at which binding is half-saturated – in data set [1] (aptamer not named, read-out: Kd of the complex (RNA-bound DMHBI)) is 500 nM. Moreover, the “dissociation τ1/2” value in data set [1] (inferred from Kd assuming diffusion-limited association rates) is below 0.1 s. For the same molecule, in the data set on aptamer 13-2 (DMHBI alone), the quantum yield is 0.0006; the “total brightness (product of extinction coefficient and quantum yield)” value was 0.008. Moreover, the molar extinction coefficient in the data set on aptamer 13-2 (DMHBI bound by aptamer 13-2) is 15,358 M^−1cm^−1. For the same molecule, in the data set with aptamer 13-2 (aptamer-DMHBI complex), the quantum yield came out at 0.08; the “total brightness (product of extinction coefficient and quantum yield)” value worked out at 1.23. In the data set on aptamer 13-2 (complex vs DMHBI alone), the “increase in quantum yield” value is “over 100 fold” and the “increase in total brightness” value stood at 150 fold. Also, the molar extinction coefficient with aptamer 13-2 (unbound DMHBI) is reported as 13,164 M^−1cm^−1. The fluorescence in glycerol entry in data set [2] (10 μM in aqueous buffer, 20% glycerol) was “very limited fluorescence”. Moreover, the “fluorescence in ethanol glass” value in data set [2] (frozen in liquid nitrogen, 77° K) is “dramatic fluorescent enhancement; also recorded: brilliantly fluorescent”. Besides, in data set [2] (setting [7]), the emission peak was 460 nm and the excitation peak is listed as 400 nm. Besides, in data set [2] (room temperature), the fluorescence in ethanol result is recorded as “nonfluorescent; also recorded: non-fluorescent”. Moreover, the “non-specific fluorescence in cells” value in the data set on HEK 293 cells was “no increase in background fluorescence; also recorded: No non-specific fluorescence”. Besides, the fraction deprotonated in data set [3] (pH 8) was around 50%.

Consider `CC1=N/C(=C\c2ccccc2O)C(=O)N1C` [o-HBDI, 4-(2-hydroxybenzylidene)-1,2-dimethyl-imidazol-5-one], for which the pKa (as a rule, the negative logarithm of the acid dissociation constant) in data set [3] was around 10. Further, the emission maxima in data set [4] was 605 nm.

Take “4-hydroxybenzylidene-1-methyl-2-penta-1,3-dien-1-yl-imidazolinone [reference compound]”: the emission maxima in data set [4] is recorded as 523 nm.

Consider `CN(C)c1ccc(C(=C2C=CC(=[N+](C)C)C=C2)c2ccccc2)cc1` [malachite green, reference compound], for which the “non-specific fluorescence in cells” value in the data set on HEK 293 cells is “intensely fluorescent; also recorded: cells turn fluorescent”.

Regarding `CC1=N/C(=C\c2cc(F)c(O)c(F)c2)C(=O)N1C` [DFHBI, 4-(3,5-difluoro-4-hydroxybenzylidene)-1,2-dimethyl-imidazol-5-one], in data set [2], the “fluorescence in ethanol glass and at high glycerol concentrations” value is reported as “robustly fluorescent”; the “fluorescence in non-viscous solutions” value is recorded as “negligible fluorescence”. The “fluorescence when administered to cells” value in the data set with HEK 293 cells was “nonfluorescent”. Also, in data set [3], the “absorbance maximum, phenol” value was determined as 363 nm; the “absorbance maximum, phenolate” value is 420 nm; the pKa was around 6. Moreover, in data set [5], the extinction coefficient is 26,000 M^−1cm^−1.

B1: DsRed: bright red fluorescent protein from coral (Discosoma spp.) (protein, UniProt Q9U6Y8 1-225, looked up)
Red fluorescent protein …: MRSSKNVIKEFMRFKVRMEGTVNGHEFEIEGEGEGRPYEGHNTVKLKVTKGGPLPFAWDILSPQFQYGSKVYVKHPADIPDYKKLSFPEGFKWERVMNFEDGGVVTVTQDSSLQDGCFIYKVKFIGVNFPSDGPVMQKKTMGWEASTERLYPRDGVLKGEIHKALKLKDGGHYLVEFKSIYMAKKPVQLPGYYYVDSKLDITSHNEDYTIVEQYERTEGRHHLFL
In the case of B1, the excitation maxima in data set [4] (literature value) is reported as 558 nm. The emission maxima in data set [4] is recorded as 583 nm.

B2: sensor of SEQ ID NO: 62: aptamer 13-2 fused via modified stem A to an ATP-binding aptamer, used with DMHBI (nucleic acid)
chain: CUAUUUCUGGAGGGGCGCUACUGUGUGGGAAGAAACUGUGGCACUUCGGUGCCAGCGUAUGGGUGGUUGGGUGCGGUCGGAGAUAGCUCGAGCAAUGC
modifications: listed as RNA, further chemistry not given here
Consider B2, for which the “fluorescence increase after addition of ATP” value in data set [6] (1 mM ATP, DMHBI present) is around 30 fold. Also, the “molar fluorescence intensity relative to 13-2 parent aptamer” value in data set [6] (ATP-bound) is given as around 20%.
